Measurements reported in ChEMBL document CHEMBL4483862, “Open-source discovery of chemical leads for next-generation chemoprotective antimalarials” (2018).

Test system: Plasmodium berghei
Test: Luciferase/luciferin-expressing antifolate-resistant parasites were used to infect a culture of HepG2 cells that were pre-incubated with compounds. Infected hepatocytes emit light due to the luciferase reaction. Assay results are presented as the percent inhibition of light emission compared to control. […]
Format: functional
Conditions: sporozoite; for IC90: read-out: LUCIFERASE INFECTION ASSAY - IC90
[1] = read-out: LUCIFERASE INFECTION ASSAY - IC50

Compound | IC90 | IC50 [1] | also measured
NS(=O)(=O)c1ccc(S(=O)(=O)N2CCCN(Cc3ccc(C(F)(F)F)cc3)CC2)cc1 | > 10 µM | – | IC50 (HEPG2TOX_HILL_SLOPE 4.06, HEPG2TOX_R_SQUARED 0.95, PBLUC_HILL_SLOPE 2.74, PBLUC_R_SQUARED 0.121, read-out: LUCIFERASE INFECTION ASSAY - IC50): 6.92 µM
COc1ccc(CCN=C(S)Nc2ccccc2C)cc1 | > 11 µM | > 11 µM | –
O=c1[nH]nc(CSc2ccccn2)c2ccccc12 | > 12.3 µM | – | IC50 (PBLUC_HILL_SLOPE 1.43, PBLUC_R_SQUARED 0.267, read-out: LUCIFERASE INFECTION ASSAY - IC50): 10 µM
O=C(NNC(=O)c1ccccc1Nc1ccccc1)c1ccccc1O | 9.6 µM | 8.81 µM | –
CCOC(=O)c1nc(N(CCc2ccccc2)C(=O)c2cnc3c(cnn3C(C)C)c2)sc1C | > 10 µM | > 10 µM | –
CC(C)c1ccc(C(Nc2ccc3nnnn3n2)c2cccs2)cc1 (stereo not given) | 5.57 µM | – | IC50 (HEPG2TOX_HILL_SLOPE 2.7, HEPG2TOX_R_SQUARED 0.805, PBLUC_HILL_SLOPE 2.3, PBLUC_R_SQUARED 0.604, read-out: LUCIFERASE INFECTION ASSAY - IC50): 2.14 µM
Cc1nn(-c2ccccc2)c(C)c1C(=O)NCc1cccc(NC(=O)C(C)C)c1 | 7.7 µM | – | IC50 (PBLUC_HILL_SLOPE 6.57, PBLUC_R_SQUARED 0.408, read-out: LUCIFERASE INFECTION ASSAY - IC50): 5.51 µM
N#CCCN(CCC#N)C(=O)CSc1nnc(CCC(N)=O)n1C1CC1 | > 10 µM | > 10 µM | –
Cc1ccccc1N1C(=O)c2ccccc2C(Cc2ccc(C#N)cc2)(Cc2ccc(C#N)cc2)C1=O | > 10 µM | – | IC50 (FFLUC_HILL_SLOPE 16.6, FFLUC_R_SQUARED 0.0411, PBLUC_HILL_SLOPE 0.772, PBLUC_R_SQUARED 0.177, read-out: LUCIFERASE INFECTION ASSAY - IC50): > 10 µM
COc1ccc(C(=O)/C=C/c2cccc3cccnc23)cc1Br | > 10 µM | – | IC50 (PBLUC_HILL_SLOPE 24.4, PBLUC_R_SQUARED 0.237, read-out: LUCIFERASE INFECTION ASSAY - IC50): > 10 µM
O=C(CN1CC=C(c2c[nH]c3ccccc23)CC1)Nc1cccc(F)c1 | > 10 µM | – | IC50 (PBLUC_HILL_SLOPE 2.56, PBLUC_R_SQUARED 0.252, read-out: LUCIFERASE INFECTION ASSAY - IC50): 6.56 µM
CC(C)(c1ccc(Oc2ccc(NC(=O)C3CC3(C)C)cc2)cc1)c1ccc(Oc2ccc(NC(=O)C3CC3(C)C)cc2)cc1 (stereo not given) | > 5.47 µM | – | IC50 (FFLUC_HILL_SLOPE 0.986, FFLUC_R_SQUARED 0.483, PBLUC_HILL_SLOPE 0.525, PBLUC_R_SQUARED 0.295, read-out: LUCIFERASE INFECTION ASSAY - IC50): 2.36 µM
Cc1nn(-c2cccc(C(F)(F)F)c2)c2sc(C(=O)NC(=S)N(C)C3CCCCC3)cc12 | 1.27 µM | 1.09 µM | –
O=C(NCc1ccc(N2CCCCC2)nc1)c1cccc2c[nH]nc12 | > 10 µM | > 10 µM | –
COc1cccc(NC(=O)N2CCc3nc(NCc4cccc(Oc5ccccc5)c4)ncc3C2)c1 | 3.67 µM | – | IC50 (HEPG2TOX_HILL_SLOPE 15.7, HEPG2TOX_R_SQUARED 0.806, PBLUC_HILL_SLOPE 104, PBLUC_R_SQUARED 0.398, read-out: LUCIFERASE INFECTION ASSAY - IC50): 3.59 µM
CN(C)c1cccc(-c2cnc(N)c(-c3ccc(O)cc3)c2)c1 | > 10.8 µM | – | IC50 (PBLUC_HILL_SLOPE 24.2, PBLUC_R_SQUARED 0.305, read-out: LUCIFERASE INFECTION ASSAY - IC50): 10.5 µM
Cc1cc(Cl)ccc1OCCCc1nc2ccc(Cl)cc2[nH]1 | > 10 µM | – | IC50 (PBLUC_HILL_SLOPE 2.8, PBLUC_R_SQUARED 0.541, read-out: LUCIFERASE INFECTION ASSAY - IC50): 7.39 µM
COc1ccc(/C=C(\C#N)c2n[nH]c(=O)c3ccccc23)cc1 | > 10 µM | 4.17 µM | –
CC(=O)c1ccc(N2CCN(c3nc4ccccc4s3)CC2)cc1 | > 10 µM | 3.62 µM | –
C=C(C)CSc1nc2cc(-c3ccc(C)cc3)sc2c(=O)n1Cc1ccccc1 | > 10 µM | – | IC50 (FFLUC_HILL_SLOPE 3.73, FFLUC_R_SQUARED 0.533, read-out: LUCIFERASE INFECTION ASSAY - IC50): > 10 µM
O=C(Nc1cccc(C(F)(F)F)c1)OCCSc1ccc([N+](=O)[O-])c2nonc12 | > 7.7 µM | – | IC50 (FFLUC_HILL_SLOPE 1.97, FFLUC_R_SQUARED 0.686, HEPG2TOX_HILL_SLOPE 15.6, HEPG2TOX_R_SQUARED 0.779, read-out: LUCIFERASE INFECTION ASSAY - IC50): > 7.7 µM
Nc1nccnc1C(=O)NNC(=O)COc1ccccc1Cc1ccccc1 | 3.67 µM | – | IC50 (HEPG2TOX_HILL_SLOPE 1.59, HEPG2TOX_R_SQUARED 0.794, PBLUC_HILL_SLOPE 15.4, PBLUC_R_SQUARED 0.41, read-out: LUCIFERASE INFECTION ASSAY - IC50): 3.18 µM
Cc1nn(C(=O)c2c(Cl)cccc2Cl)c(C)c1Cc1c(Cl)cccc1Cl | > 7.71 µM | – | IC50 (PBLUC_HILL_SLOPE 3.14, PBLUC_R_SQUARED 0.492, read-out: LUCIFERASE INFECTION ASSAY - IC50): 5.28 µM
CCc1sc(C(=O)NNC(=O)CN2CCN(c3ccc([N+](=O)[O-])cc3)CC2)cc1C | > 10 µM | > 10 µM | –

Compound | IC90 | IC50 [1] | also measured
O=C1c2ccccc2S(=O)(=O)N1c1ccccc1F | > 10 µM | > 10 µM | –
CC(C)(C)c1cc(-c2cc(C(F)(F)F)[nH]n2)c2c(c1)C(C)(C)CC2 | > 9.81 µM | – | IC50 (FFLUC_HILL_SLOPE 11.7, FFLUC_R_SQUARED 0.064, read-out: LUCIFERASE INFECTION ASSAY - IC50): > 9.81 µM
Cc1cc(C(=O)COC(=O)c2[nH]nc3ccccc23)c(C)n1Cc1cccs1 | 6.39 µM | – | IC50 (PBLUC_HILL_SLOPE 1.56, PBLUC_R_SQUARED 0.399, read-out: LUCIFERASE INFECTION ASSAY - IC50): 1.56 µM
O=S(=O)(c1ccc(-c2cc(-c3ccccc3Cl)c3cc(Cl)ccc3n2)cc1)N1CCCCC1 | > 10 µM | – | IC50 (FFLUC_HILL_SLOPE 79.3, FFLUC_R_SQUARED 0.555, read-out: LUCIFERASE INFECTION ASSAY - IC50): > 10 µM
COc1cccc(NCC2(c3ccnc(-c4ccccc4Cl)c3)CC2)c1 | > 10 µM | > 10 µM | –
Cc1ccsc1/C=C/c1ccc2cccc(O)c2n1 | > 10 µM | – | IC50 (PBLUC_HILL_SLOPE 14, PBLUC_R_SQUARED 0.406, read-out: LUCIFERASE INFECTION ASSAY - IC50): 9.41 µM
O=S(=O)(CCSc1ccc(C(F)(F)F)cn1)c1ccc(OC(F)(F)F)cc1 | > 7.65 µM | > 7.65 µM | –
Cc1cc(C)cc(NC(=O)C(Sc2nc(=O)cc(N)[nH]2)c2ccccc2)c1 (stereo not given) | > 10 µM | > 10 µM | –
CSc1sc(-c2ccnc(SCC(=O)c3ccc(Cl)cc3)n2)c2c1C(=O)CCC2 | > 7.16 µM | > 7.16 µM | –
CCN(CC)CCNC(=O)c1ccc(-c2ccccc2)cc1 | > 11.1 µM | – | IC50 (PBLUC_HILL_SLOPE 0.701, PBLUC_R_SQUARED 0.65, read-out: LUCIFERASE INFECTION ASSAY - IC50): 5.34 µM
CCOC(=O)c1c(C)[nH]c(C(=O)COC(=O)c2nc(-c3ccccc3)n(-c3ccccc3)n2)c1C | > 10 µM | > 10 µM | –
Cc1cc2c(cc1C)NC(c1c(O)ccc3ccccc13)C1C(=O)CC(C)(C)CC1=N2 (stereo not given) | > 8 µM | 7.67 µM | –
O=C(N/N=C1/C(=O)c2cccc3cccc1c23)c1cccc(S(=O)(=O)N2CCCCC2)c1 | > 10 µM | > 10 µM | –
CC(C)c1ccccc1N(C(=O)c1cc2ccccc2o1)c1nc2ccccc2s1 | > 10 µM | – | IC50 (HEPG2TOX_HILL_SLOPE 3.13, HEPG2TOX_R_SQUARED 0.898, read-out: LUCIFERASE INFECTION ASSAY - IC50): > 10 µM
CC(=O)c1c(C)[nH]c(C(=O)COC(=O)c2cnn(-c3ccccc3)c2)c1C | > 10 µM | > 10 µM | –
FC(F)Sc1ccc(NC(=S)NCC(c2ccco2)N2CCCCC2)cc1 (stereo not given) | > 10 µM | 6.18 µM | –
COc1ccc(NS(=O)(=O)c2ccc3oc(Nc4cc(C)on4)nc3c2)cc1 | 9.75 µM | – | IC50 (HEPG2TOX_HILL_SLOPE 5.63, HEPG2TOX_R_SQUARED 0.393, PBLUC_HILL_SLOPE 4.89, PBLUC_R_SQUARED 0.566, read-out: LUCIFERASE INFECTION ASSAY - IC50): 6.22 µM
Cc1csc2sc(/C=N/Cc3cccs3)c(C)c12 | > 11.3 µM | > 11.3 µM | –
Cc1ccc(-n2c(C)cc(C3=NN=C(NC4CC4)SC3)c2C)cc1C | 3.59 µM | – | –
O=C(Nc1ccc(-c2nccs2)cc1)c1cc(Br)c[nH]1 | > 10 µM | 7.5 µM | –
O=C(Nc1ccc(OC(F)(F)F)cc1)Nc1ccc(Sc2ccccc2)nc1Sc1ccccc1 | 1.18 µM | – | IC50 (HEPG2TOX_HILL_SLOPE 8.48, HEPG2TOX_R_SQUARED 0.476, PBLUC_HILL_SLOPE 1.76, PBLUC_R_SQUARED 0.832, read-out: LUCIFERASE INFECTION ASSAY - IC50): 0.339 µM
CCOC(=O)c1ccc(N2C(=O)c3ccccc3C(C=NNC(=O)Cc3ccc(F)cc3)C2=O)cc1 (stereo not given) | > 10 µM | – | IC50 (HEPG2TOX_HILL_SLOPE 7.51, HEPG2TOX_R_SQUARED 0.875, PBLUC_HILL_SLOPE 2.71, PBLUC_R_SQUARED 0.377, read-out: LUCIFERASE INFECTION ASSAY - IC50): 8.78 µM
CC(C)c1c(C(=O)NNC(=O)c2ccc3ccccc3n2)cnn1-c1ccccc1 | 3.77 µM | – | IC50 (HEPG2TOX_HILL_SLOPE 12.8, HEPG2TOX_R_SQUARED 0.528, PBLUC_HILL_SLOPE 15.6, PBLUC_R_SQUARED 0.425, read-out: LUCIFERASE INFECTION ASSAY - IC50): 3.28 µM
CN1CCN(c2ccc(Cl)cc2NC(=O)Cn2c3ccccc3c(=O)c3ccccc32)CC1 | > 10 µM | – | IC50 (PBLUC_HILL_SLOPE 2.6, PBLUC_R_SQUARED 0.61, read-out: LUCIFERASE INFECTION ASSAY - IC50): 4.43 µM
